In the assay the target is T1, S-COMT enzyme (Homo sapiens, UniProt P21964).
T1 sequence (P21964 1-221 isoform P21964-2): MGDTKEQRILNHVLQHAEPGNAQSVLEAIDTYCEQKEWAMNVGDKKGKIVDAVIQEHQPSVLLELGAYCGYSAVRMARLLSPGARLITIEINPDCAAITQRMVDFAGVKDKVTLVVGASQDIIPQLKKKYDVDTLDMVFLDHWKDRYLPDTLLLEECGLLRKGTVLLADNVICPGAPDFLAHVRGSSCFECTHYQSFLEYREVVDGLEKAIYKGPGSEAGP
The assay is described as follows: Determination of COMT activity (IC50). It is filed as biochemical. The following applies: S-COMT about 30 nM, 3 mM dopamine substrate, 0.05 mM AdoMet, 5 mM MgCl2, pH 7.4, 37° C., 15 min; HPLC. On the procedure: EXPERIMENT I: Determination of COMT activity (IC50)
The determination of IC50 was performed by measuring the COMT activity in a test sample which contained S-COMT enzyme (about 30 nM), 3 mM dopamine (as the substrate of COMT), 5 mM magnesium chloride, 0.05 mM S-adenosyl-L-methionine (AdoMet) and a test compound of the invention at various concentrations in 0.1 M phosphate buffer, pH 7.4, at 37° C.
The reaction in the test sample was initiated by adding the dopamine substrate to the sample mixture and, after incubation for 15 min at 37° C., the reaction was stopped with 4 M perchloric acid and stabilized further 10 min in ice bath. Thereafter the precipitated proteins were removed by centrifugation (4000×G for 10 min). The activity of COMT enzyme was measured by determining the concentration of the reaction products, 3-methyldopamine and 4-methyldopamine, by HPLC. The results were calibrated with 3-methyldopamine standards. See also T. Lotta et al., Biochemistry, vol.34(13), 1995, p.4204. The IC50 value is the concentration of the test compound which causes a 50% decrease in COMT activity.
On to `O=[N+]([O-])c1c(O)c(O)cc2ccccc12` [Example 1, 1-Nitronaphthalene-2,3-diol], for which the IC50 is 30 nM.

Take `O=C(c1ccccc1)c1ccc2c([N+](=O)[O-])c(O)c(O)cc2c1` [Example 3, (6,7-Dihydroxy-5-nitro-naphthalen-2-yl)-phenyl-methanone]: inhibition was half-maximal at 80 nM (IC50).

Consider `CC(C)C(=O)c1ccc2c([N+](=O)[O-])c(O)c(O)cc2c1` [Example 4, 1-(6,7-Dihydroxy-5-nitro-naphthalen-2-yl)-2-methyl-propan-1-one], for which the IC50 stood at 25 nM.

As for `CC(C)Cc1ccc2c([N+](=O)[O-])c(O)c(O)cc2c1` [Example 5, 6-Isobutyl-1-nitro-naphthalene-2,3-diol], the IC50 stood at 45 nM.

For `O=C(O)c1ccc2c([N+](=O)[O-])c(O)c(O)cc2c1` [Example 7, 6,7-Dihydroxy-5-nitro-naphthalene-2-carboxylic Acid], it took 30 nM to reach half-maximal inhibition (IC50).

Consider `O=Cc1c(O)c(O)cc2ccccc12` [Example 8, 2,3-Dihydroxy-naphthalene-1-carbaldehyde], for which the IC50 was determined as 200 nM.

Take `CCCCCCC(=O)c1ccc2c([N+](=O)[O-])c(O)c(O)cc2c1` [Example 9, 1-(6,7-Dihydroxy-5-nitro-naphthalen-2-yl)-heptan-1-one]: the IC50 was 80 nM.

In turn, `O=[N+]([O-])c1ccc2c([N+](=O)[O-])c(O)c(O)cc2c1` [Example 10, 1,6-Dinitro-naphthalene-2,3-diol] returned an IC50 of 15 nM.

`CCCN(CCC)S(=O)(=O)c1ccc2c([N+](=O)[O-])c(O)c(O)cc2c1` [Example 11, 6,7-Dihydroxy-5-nitro-naphthalene-2-sulfonic Acid Dipropylamide] registered an IC50 of 25 nM.

For `N#Cc1c(O)c(O)cc2ccccc12` [Example 13, 2,3-Dihydroxy-naphthalene-1-carbonitrile], the IC50 was 100 nM.

Molecule `CN1CCN(C(=O)c2ccc3c([N+](=O)[O-])c(O)c(O)cc3c2)CC1` [Example 14, (6,7-Dihydroxy-5-nitro-naphthalen-2-yl)-(4-methyl-piperazin-1-yl)-methanone] displayed an IC50 of 15 nM.

`O=[N+]([O-])c1c(O)c(O)c(Br)c2ccncc12` [Example 15, 5-Bromo-6,7-dihydroxy-8-nitro-isoquinolinium; Bromide] had an IC50 of 140 nM.

The values are drawn from patent publication US6903114B2, “Derivatives of naphthalene with COMT inhibiting activity” (Orion Corporation, priority 2000, dated 2005).
